Experimental data: patent publication US20020082268A1, “Therapeutic compounds for the treatment of asthma and allergy, and methods of use thereof” (priority 2000, published 2002)

These compounds were tested against T1, Histamine H1-receptor (peripheral) (Cavia porcellus, UniProt P31389) (assay: Histamine H1-receptor (peripheral) binding assay, [3H]pyrilamine, guinea-pig lung membranes). Conditions: 1 nM [3H]pyrilamine.
T1 construct: Aliquots of guinea-pig lung membrane preparations corresponding to 800 μg protein are incubated; from tissue; host or cells: guinea-pig lung membranes
T1 sequence (P31389 whole entry): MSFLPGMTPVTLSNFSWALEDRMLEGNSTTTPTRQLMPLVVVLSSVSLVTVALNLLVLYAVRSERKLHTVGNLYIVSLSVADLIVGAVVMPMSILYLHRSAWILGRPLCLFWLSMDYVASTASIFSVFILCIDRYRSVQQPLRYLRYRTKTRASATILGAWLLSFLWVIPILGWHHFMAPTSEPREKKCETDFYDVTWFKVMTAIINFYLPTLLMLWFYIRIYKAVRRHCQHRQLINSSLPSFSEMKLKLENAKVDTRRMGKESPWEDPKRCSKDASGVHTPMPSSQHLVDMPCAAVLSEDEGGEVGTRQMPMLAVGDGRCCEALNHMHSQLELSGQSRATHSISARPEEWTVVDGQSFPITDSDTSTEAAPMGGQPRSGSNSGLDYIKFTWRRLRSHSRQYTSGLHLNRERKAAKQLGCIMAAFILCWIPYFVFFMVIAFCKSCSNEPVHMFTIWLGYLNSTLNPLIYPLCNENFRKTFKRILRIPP
Procedure: Histamine H1-receptor (peripheral) binding assays were performed according to the literature procedure (ref: Dini, S., et al, Agents and Actions, 1991, 33:181-184). Aliquots of guinea-pig lung membrane preparations corresponding to 800 μg protein are incubated for 15 min at 22° C. in 500 μl of 50 mM Na2HPO4/KH2PO4 buffer (pH 7.5) containing 1 nM [^3H]pyrilamine and increasing concentrations of the competing drugs. Nonspecific binding is determined in the presence of 100 μM triprolidine. After incubation, the samples are filtered rapidly under vacuum through glass fiber filters (GF/B, Whatman) and rinsed several times with ice-cold 50 mM Na2HPO4/KH2PO4 using a cell harvester (Brandel). Bound radioactivity is measured with a scintillation counter (LS 6000, Beckman) using a liquid scintillation cocktail (Formula 989, Packard).The reference compound for this assay is pyrilamine.
The results are expressed as percent of control specific binding and as a percent inhibition of control specific binding obtained in the presence of the tested compounds. IC50 values (concentration causing a half-maximal inhibition of control activity) and Hill coefficients (nH) are determined by non-linear regression analysis of the concentration-response curves. These parameters are obtained by Hill equation curve fitting.

Structure (SMILES) | IC50
O=C(O)c1ccc2nc(CN3CCC(Nc4nc5ccccc5n4Cc4ccc(F)cc4)CC3)n(O)c(=O)c2c1 [Entry 9] | < 0.1 µM
O=c1c2ccccc2nc(N2CCN(C(c3ccccc3)c3ccc(Cl)cc3)CC2)n1O (centres unmarked) [Entry 13] | < 10 µM
O=c1c2cc(F)ccc2nc(CN2CCC(=C3c4ccc(Cl)cc4CCc4cccnc43)CC2)n1O [Entry 5] | < 10 µM
O=c1c2cc(O)ccc2nc(CN2CCC(Nc3nc4ccccc4n3Cc3ccc(F)cc3)CC2)n1O [Entry 8] | < 0.1 µM
O=c1c2cc(F)c(F)cc2nc(CN2CCC(Nc3nc4ccccc4n3Cc3ccc(F)cc3)CC2)n1O [Entry 6] | < 1 µM
O=C(O)c1ccc2nc(N3CCC(Nc4nc5ccccc5n4Cc4ccc(F)cc4)CC3)n(O)c(=O)c2c1 [Entry 10] | < 1 µM
Cc1cccc2c(=O)n(O)c(CN3CCC(=C4c5ccc(Cl)cc5CCc5cccnc54)CC3)nc12 [Entry 4] | < 10 µM
COc1ccc2nc(CN3CCC(Nc4nc5ccccc5n4Cc4ccc(F)cc4)CC3)n(O)c(=O)c2c1 [Entry 7] | < 1 µM
O=c1c2ccccc2nc(CN2CCC(Nc3nc4ccccc4n3Cc3ccc(F)cc3)CC2)n1O [Entry 1] | < 1 µM
O=C(O)c1ccc2c(=O)n(O)c(CN3CCC(Nc4nc5ccccc5n4Cc4ccc(F)cc4)CC3)nc2c1 [Entry 2] | < 1 µM
O=C(O)c1ccc2nc(NC3CCN(c4nc5ccccc5n4Cc4ccc(F)cc4)CC3)n(O)c(=O)c2c1 [Entry 11] | < 10 µM
O=C(O)c1ccc2c(=O)n(O)c(CN3CCC(=C4c5ccc(Cl)cc5CCc5cccnc54)CC3)nc2c1 [Entry 3] | < 1 µM
O=c1c2cc(Br)ccc2nc(N2CCC(Nc3nc4ccccc4n3Cc3ccc(F)cc3)CC2)n1O [Entry 14] | < 1 µM
O=c1c2ccccc2nc(N2CCC(Nc3nc4ccccc4n3Cc3ccc(F)cc3)CC2)n1O [Entry 12] | < 1 µM

Next, values leading:

IC50 | Structure (SMILES)
< 1 µM | O=c1c2ccc(Cl)cc2nc(N2CCC(Nc3nc4ccccc4n3Cc3ccc(F)cc3)CC2)n1O [Entry 18]
< 1 µM | O=c1c2c(Cl)cccc2nc(N2CCC(Nc3nc4ccccc4n3Cc3ccc(F)cc3)CC2)n1O [Entry 22]
< 1 µM | COc1cc2nc(N3CCC(Nc4nc5ccccc5n4Cc4ccc(F)cc4)CC3)n(O)c(=O)c2cc1OC [Entry 21]
< 1 µM | COc1cccc2c(=O)n(O)c(N3CCC(Nc4nc5ccccc5n4Cc4ccc(F)cc4)CC3)nc12 [Entry 20]
< 1 µM | COc1ccc2nc(N3CCC(Nc4nc5ccccc5n4Cc4ccc(F)cc4)CC3)n(O)c(=O)c2c1 [Entry 16]
< 1 µM | O=c1c2ccc(F)cc2nc(N2CCC(Nc3nc4ccccc4n3Cc3ccc(F)cc3)CC2)n1O [Entry 17]
< 1 µM | O=c1c2cc([N+](=O)[O-])ccc2nc(N2CCC(Nc3nc4ccccc4n3Cc3ccc(F)cc3)CC2)n1O [Entry 24]
< 1 µM | Cc1cccc2nc(N3CCC(Nc4nc5ccccc5n4Cc4ccc(F)cc4)CC3)n(O)c(=O)c12 [Entry 23]
< 0.1 µM | O=c1c2cc(F)ccc2nc(N2CCC(Nc3nc4ccccc4n3Cc3ccc(F)cc3)CC2)n1O [Entry 15]
< 1 µM | O=c1c2cc(Cl)ccc2nc(N2CCC(Nc3nc4ccccc4n3Cc3ccc(F)cc3)CC2)n1O [Entry 19]

The compounds below were run against T2, 5-LO (UniProt P09917) (assay: 5-LO enzyme assay (RIA quantitation of 5-HETE)). Conditions: Procedure A (RBL-1 cells) or B (HL-60 cells), not given; read-out: Inhibition of 5-LO: IC50.
T2 sequence (P09917 1-674): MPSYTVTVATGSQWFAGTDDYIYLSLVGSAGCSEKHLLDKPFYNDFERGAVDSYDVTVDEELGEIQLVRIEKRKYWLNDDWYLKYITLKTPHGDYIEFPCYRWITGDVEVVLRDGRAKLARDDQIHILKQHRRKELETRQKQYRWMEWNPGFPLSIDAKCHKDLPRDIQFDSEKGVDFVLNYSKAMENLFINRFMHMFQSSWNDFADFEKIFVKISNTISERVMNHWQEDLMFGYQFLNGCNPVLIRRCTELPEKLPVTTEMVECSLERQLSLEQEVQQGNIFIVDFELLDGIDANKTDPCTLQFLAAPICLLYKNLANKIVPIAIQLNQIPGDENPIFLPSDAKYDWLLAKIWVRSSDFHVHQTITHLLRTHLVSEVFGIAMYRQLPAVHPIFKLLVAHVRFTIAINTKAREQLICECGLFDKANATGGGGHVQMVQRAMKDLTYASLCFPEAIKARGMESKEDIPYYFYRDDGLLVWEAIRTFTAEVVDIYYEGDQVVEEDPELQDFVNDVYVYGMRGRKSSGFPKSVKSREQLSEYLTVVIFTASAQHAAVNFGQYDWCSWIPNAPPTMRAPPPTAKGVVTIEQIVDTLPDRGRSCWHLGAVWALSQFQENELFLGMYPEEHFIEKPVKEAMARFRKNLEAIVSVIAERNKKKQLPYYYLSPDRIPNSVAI
Type: biochemical
Procedure: 5-LO enzyme assays (radio-immuno assays (RIA)) were performed according to literature procedures (ref: (a) Egan, R. W., and Gale, P. H., J. Biol. Chem. 1985, 260:11554-11559; (b) Shimizu, T., Rdamark, O., and Samuelsson, B. Proc. Natl. Acad. Sci. USA, 1984, 81:689-693); (c) Coffey, M. et al., J. Biol. Chem. 1992, 267: 570-576) using commercially available kits or reagents.
Tissue/cell sources: Rat basophilic leukemia cells (RBL-1);
Substrate: Arachidonic acid (AA) at 14 μM;
Reaction: AA→5-HPETE→5-HETE, incubation at 25° C. for 8 min;
Method: RIA quantitation of 5-HETE, reference compound NGDA (nordihydroquaiaretic acid).
Tissue/cell sources: Human differentiated HL-60 cells;
Substrate: Arachidonic acid (AA) at 0.4 μM;
Reaction: AA→5-HPETE→5-HETE, incubation at 37° C. for 10 min;
The results are expressed as percent of control activity and as a percent inhibition of control activity obtained in the presence of the tested compounds.
IC50 values (concentration causing a half-maximal inhibition of control activity) and Hill coefficients (nH) are determined by non-linear regression analysis of the concentration-response curves. These parameters are obtained by Hill equation curve fitting.

Structure (SMILES) | IC50
O=C(O)c1ccc2nc(CN3CCC(Nc4nc5ccccc5n4Cc4ccc(F)cc4)CC3)n(O)c(=O)c2c1 [Entry 9] | > 10 µM
O=c1c2cc(F)ccc2nc(CN2CCC(=C3c4ccc(Cl)cc4CCc4cccnc43)CC2)n1O [Entry 5] | < 10 µM
O=c1c2cc(O)ccc2nc(CN2CCC(Nc3nc4ccccc4n3Cc3ccc(F)cc3)CC2)n1O [Entry 8] | < 10 µM
O=c1c2cc(F)c(F)cc2nc(CN2CCC(Nc3nc4ccccc4n3Cc3ccc(F)cc3)CC2)n1O [Entry 6] | < 10 µM
O=C(O)c1ccc2nc(N3CCC(Nc4nc5ccccc5n4Cc4ccc(F)cc4)CC3)n(O)c(=O)c2c1 [Entry 10] | > 10 µM
Cc1cccc2c(=O)n(O)c(CN3CCC(=C4c5ccc(Cl)cc5CCc5cccnc54)CC3)nc12 [Entry 4] | < 10 µM
COc1ccc2nc(CN3CCC(Nc4nc5ccccc5n4Cc4ccc(F)cc4)CC3)n(O)c(=O)c2c1 [Entry 7] | < 10 µM
O=c1c2ccccc2nc(CN2CCC(Nc3nc4ccccc4n3Cc3ccc(F)cc3)CC2)n1O [Entry 1] | < 1 µM
O=C(O)c1ccc2c(=O)n(O)c(CN3CCC(Nc4nc5ccccc5n4Cc4ccc(F)cc4)CC3)nc2c1 [Entry 2] | > 10 µM
O=C(O)c1ccc2nc(NC3CCN(c4nc5ccccc5n4Cc4ccc(F)cc4)CC3)n(O)c(=O)c2c1 [Entry 11] | > 10 µM
O=C(O)c1ccc2c(=O)n(O)c(CN3CCC(=C4c5ccc(Cl)cc5CCc5cccnc54)CC3)nc2c1 [Entry 3] | < 10 µM
O=c1c2cc(Br)ccc2nc(N2CCC(Nc3nc4ccccc4n3Cc3ccc(F)cc3)CC2)n1O [Entry 14] | < 10 µM
O=c1c2ccccc2nc(N2CCC(Nc3nc4ccccc4n3Cc3ccc(F)cc3)CC2)n1O [Entry 12] | < 10 µM

Other lines, results leading:

IC50 | Structure (SMILES)
< 10 µM | COc1ccc2nc(N3CCC(Nc4nc5ccccc5n4Cc4ccc(F)cc4)CC3)n(O)c(=O)c2c1 [Entry 16]
< 1 µM | O=c1c2cc(F)ccc2nc(N2CCC(Nc3nc4ccccc4n3Cc3ccc(F)cc3)CC2)n1O [Entry 15]
< 1 µM | O=c1c2cc(Cl)ccc2nc(N2CCC(Nc3nc4ccccc4n3Cc3ccc(F)cc3)CC2)n1O [Entry 19]

What follows are compounds tested on human differentiated HL-60 cells (assay: LTB4 secretion assay in differentiated HL-60 cells (A23187, EIA)). Conditions: 0.5 h, A23187 5 uM, 37 C, 30 min, read-out: Inhibition of LTB4 secretion: IC50.
Type: cell-based
Procedure: The assays were performed using human differentiated HL-60 cells using NDGA as reference compound following the literature procedure (Bennett, C. F. et al, Biochem. J., 1993, 289: 33-39). Substrate A23187 (5 uM) was incubated along with test compound in HL-60 cells at 37 C for 30 min. Reaction product LTB4 was detected by enzymeimmuno assays (EIA) using commercially available kits and a microplate reader.

Structure (SMILES) | IC50
O=c1c2ccccc2nc(N2CCN(C(c3ccccc3)c3ccc(Cl)cc3)CC2)n1O (centres unmarked) [Entry 13] | < 10 µM
O=c1c2cc(Br)ccc2nc(N2CCC(Nc3nc4ccccc4n3Cc3ccc(F)cc3)CC2)n1O [Entry 14] | < 10 µM
O=c1c2ccccc2nc(N2CCC(Nc3nc4ccccc4n3Cc3ccc(F)cc3)CC2)n1O [Entry 12] | < 10 µM

Next, values leading:

IC50 | Structure (SMILES)
< 10 µM | O=c1c2ccc(Cl)cc2nc(N2CCC(Nc3nc4ccccc4n3Cc3ccc(F)cc3)CC2)n1O [Entry 18]
< 1 µM | O=c1c2c(Cl)cccc2nc(N2CCC(Nc3nc4ccccc4n3Cc3ccc(F)cc3)CC2)n1O [Entry 22]
< 10 µM | COc1cc2nc(N3CCC(Nc4nc5ccccc5n4Cc4ccc(F)cc4)CC3)n(O)c(=O)c2cc1OC [Entry 21]
> 10 µM | COc1cccc2c(=O)n(O)c(N3CCC(Nc4nc5ccccc5n4Cc4ccc(F)cc4)CC3)nc12 [Entry 20]
< 10 µM | COc1ccc2nc(N3CCC(Nc4nc5ccccc5n4Cc4ccc(F)cc4)CC3)n(O)c(=O)c2c1 [Entry 16]
< 10 µM | O=c1c2ccc(F)cc2nc(N2CCC(Nc3nc4ccccc4n3Cc3ccc(F)cc3)CC2)n1O [Entry 17]
> 10 µM | O=c1c2cc([N+](=O)[O-])ccc2nc(N2CCC(Nc3nc4ccccc4n3Cc3ccc(F)cc3)CC2)n1O [Entry 24]
< 10 µM | Cc1cccc2nc(N3CCC(Nc4nc5ccccc5n4Cc4ccc(F)cc4)CC3)n(O)c(=O)c12 [Entry 23]
< 10 µM | O=c1c2cc(F)ccc2nc(N2CCC(Nc3nc4ccccc4n3Cc3ccc(F)cc3)CC2)n1O [Entry 15]
< 10 µM | O=c1c2cc(Cl)ccc2nc(N2CCC(Nc3nc4ccccc4n3Cc3ccc(F)cc3)CC2)n1O [Entry 19]
